Laboratory results taken from patent US10570179B2, “Substituted urea depsipeptide analogs as activators of the CLPP endopeptidase” (priority 2016, dated 2020).
Values after ≈ are worked out from the molar mass of the structure shown. Like-named read-outs stand apart in the source and are kept apart here. Numbered stars: 1 amine (or outer) side, 2 acyl side, 3 side chain; on linkers, the order of the positions; unused ones are H or OH. Bridge positions count the residues as written; N and C are the ends. Square brackets hold non-standard residues; d marks the D form. Peptide text beside a SMILES is read from it. * marks the point of attachment. ξ: configuration not given here. Piperazine(2S-CO,4-Me) = CN1CCN[C@H](C(=O)O)C1; X6 = O=C([C@@H]1CS(=O)(=O)CCN1[*:1])[*:2]; Morpholine(3S-CO) = O=C(O)[C@@H]1COCCN1; Phe(3-Me) = Cc1cccc(C[C@H](N)C(=O)O)c1; NH(4-Cl-2-F-phenyl) = Fc1cc(Cl)ccc1N*; Pro(4R-Me) = C[C@H]1CN[C@H](C(=O)O)C1; Hyp = O=C(O)[C@@H]1C[C@@H](O)CN1; NH(4-Me-phenyl) = Cc1ccc(N*)cc1; ξNMeThr = CNC(C(=O)O)[C@@H](C)O; aThr = C[C@H](O)[C@H](N)C(=O)O; Pip = O=C(O)[C@@H]1CCCCN1; X3 = c1cc2c(cc1N*)OCCO2; CO = O=C([*:1])[*:2]

How the values were obtained:
E. faecails = assay: Minimal inhibitory concentration, microbroth dilution; format: cell-based; settings: Enterococcus faecalis
Outline: (§1)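 MIC is recorded by eye as the lowest drug concentration that stops bacterial growth. Compound is serially diluted twofold in broth, starting at 200 μM final, and bacteria are added at roughly 10^5 cfu/mL. Incubation runs overnight at 37 °C under aerobic conditions, per CLSI guidance.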

S. aureus ATCC 29213 = assay: as above; format: cell-based; settings: Staphylococcus aureus
Outline: as §1

[1] = Plasma protein binding, rapid equilibrium dialysis; format: in vitro ADME, human; settings: 10 μM
Method: This assay determines plasma protein binding of a drug/compound and free drug concentration in plasma using rapid equilibrium dialysis, which allow the aqueous component of plasma containing the free drug/compound through a dialysis membrane (MWCO˜8,000).
Solutions were prepared at 10 mM in DMSO. Dulbecco's phosphate buffered saline (DPBS; pH 7.4) was obtained from Invitrogen (Carlsbad, Calif.). Single-Use RED (rapid equilibrium dialysis) device was obtained from Thermo scientific (Rockford, Ill.). Human plasma was obtained from Innovative Research INC (Novi, Michigan, Ill).
Sample preparation for plasma protein binding was modified from Waters' method. (Waters et al. (2008) J. Pharm. Sci. 97(10): 4586-95). The Teflon base plate with the RED inserts (MWCO 8 K) were allowed to use without any pre-condition the membrane inserts. Human plasma was thawed and centrifuged at 1000 rpm for 2 min to remove any particulates. Each compound was prepared at 10 μM in human plasma. This was done by adding 1 μL, of drug solution (10 mM in DMSO) to 1000 μL, of human plasma (0.1% DMSO). Spiked plasma solutions (300 μL) were placed into the sample chamber (indicated by the red ring) and 500 μL, of DPBS into the adjacent chamber. The plate was sealed and incubated at 37° C. on an orbital shaker (100 rpm) for 4 hours. After incubation, the seal was removed from the RED plate and the volume of the insert confirmed—little to no volume change occurred. Aliquots (50 μL) were removed from each side of the insert and dispensed into a 96-well deep plate. An equal volume of blank plasma or DPBS was added to the required wells to create analytically identical sample matrices (matrix matching). To each sample 200 μL, of ACN containing 4 μg/mL warfarin IS was added. All of the plates were sealed and mixed well at 600 rpm for 10 min and were centrifuged at 4000 rpm for 20 min. The supernatants (120 μL) were transferred to analytical plates for analysis by LCMS. Conditions for Waters ACQUITY-UPLC-MS-UV system were described separately. The test compound concentrations were quantified in both buffer and plasma chambers via peak areas relative to the internal standard. The percentage of the test compound bound to plasma was calculated on following equations: % Free=(Concentration buffer chamber/concentration plasma chamber)×100% and % Bound=100%-% Free.

Sa-ClpP = biological target: T1, Sa-ClpP (Staphylococcus aureus, UniProt Q2G036); assay: ADEP displacement fluorescence polarization assay; format: binding, S. aureus; settings: displacement of FP probe ADEP 2591 from Sa-ClpP
T1 construct: made in house; host or cells: E. coli BL21 (DE3)
Method: A fluorescence polarization (FP) assay was used to determine the activity of the disclosed compounds in displacing an ADEP analogue from ClpP. Briefly, the assay was performed in black 384 well, flat bottom, low volume plates (Greiner Bio-One, Monroe, N.C., catalog #784076). 20 μL of a pre-equilibrated (1 hr, room temperature) master mix (15 μM Sa-ClpP, 2% DMSO (v/v) and 50 nM FP probe in TrisHCl, pH 8.0)) was pipetted into each well using a Well-Mate (Thermo Scientific, Waltham, Mass.). Sa-ClpP was prepared as described above for the ClpP activation assay. The FP probe was ADEP 2591 (structure shown above). The ADEP 2591 comprises a TAMRA fluorophore linked to a core based on modified ADEP 2378 via a short alkyl linker. Using pin transfer, approximately 0.4 μL (2% v/v DMSO) of each compound or control was added per well. After addition of compounds and controls, plates were allowed to incubate for an additional 120 minutes at room temperature. All assays were performed in triplicate. Polarization was monitored using an EnVision Multilabel reader (Perkin-Elmer, Waltham, Mass.) by exciting the FP probe at 530±25 nm, and monitoring fluorescence intensity of both parallel and perpendicular polarized light at 579±25 nm. Readout was in millipolarization units (mP).
Signal gain and G factors were determined in wells containing 200 μM ADEP 2378, which had been previously verified (data not shown) as containing completely unbound ADEP 2591. Data collected was normalized to values obtained from positive (200 μM ADEP 2378) or negative (DMSO) controls. Curves were fit with non-linear regression using the equation “log [inhibitor] vs. Response-variable slope (four parameters)-symmetrical” in the program Prism 6 (GraphPad Software, La Jolla, Calif. USA, www.graphpad.com). The structures for ADEP 2378 and ADEP 2591 are shown above. ADEP 2378 is (E)-N—((S)-1-(((2R,6S,8aS,14aS,20S,23aS)-2,6-dimethyl-5,8,14,19,23-pentaoxooctadecahydro-1H,5H,14H,19H-pyrido[2,1-i]dipyrrolo[2,1-c:2′,1′-1][1]oxa[4,7,10,13]tetraazacyclohexadecin-20-yl)amino)-1-oxo-3-phenylpropan-2-yl)pent-2-enamide. ADEP 2591 is 5-(3-(3-((6S,9S,11aS,17S,20aS)-6,10-dimethyl-5,8,11,16,20-pentaoxo-17-((S)-2-((E)-pent-2-enamido)-3-phenylpropanamido)hexadecahydro-1H,5H,16H-dipyrrolo[2,1-c:2′,1′-1][1]oxa[4,7,10,13]tetraazacyclohexadecin-9-yl)propyl)thioureido)-2-(6-(dimethylamino)-3-(dimethyliminio)-3H-xanthen-9-yl)benzoate.

[2] = MIC, read-out: Minimal Inhibitory Concentrations (μM) E. faecails
[3] = ATCC29213, MIC, read-out: Minimal Inhibitory Concentrations (μM) S. aureus ATCC 29213
[4] = read-out: Minimal Inhibitory Concentrations (μM) E. faecails, MIC
[5] = ATCC29213, read-out: Minimal Inhibitory Concentrations (μM) S. aureus ATCC 29213, MIC
[6] = plasma binding, % Bound, human plasma

T1 sequence (Q2G036 whole entry): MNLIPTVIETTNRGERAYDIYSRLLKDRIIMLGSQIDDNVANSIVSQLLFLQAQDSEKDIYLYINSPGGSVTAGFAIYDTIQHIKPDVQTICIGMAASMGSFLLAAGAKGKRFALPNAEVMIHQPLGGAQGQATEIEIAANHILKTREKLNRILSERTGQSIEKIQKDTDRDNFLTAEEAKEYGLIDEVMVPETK

## Cc1cccc(C[C@H](NC(=O)Nc2ccc(Cl)cc2F)C(=O)N[C@@H]2C(=O)N3CCC[C@H]3C(=O)N(C)C([C@@H](C)O)C(=O)N[C@@H](C)C(=O)N3C[C@H](C)C[C@H]3C(=O)O[C@H]2C)c1 (stereo partly drawn) [Compound 5] ({NH(4-Cl-2-F-phenyl)-CO}-[Phe(3-Me)][aThr]P[ξNMeThr]A[Pro(4R-Me)]; ester 2-C)
E. faecails; [2]
  MIC: 0.156 µM (≈ 0.129 µg/mL)
S. aureus ATCC 29213; [3]
  MIC: 0.078 µM (≈ 0.0646 µg/mL)
[1]; human, 4 h, pH 7.4
  Human – 98.0 ± 1.0%
Sa-ClpP
  IC50: 4.4 ± 0.4 µM

## Cc1ccc(NC(=O)N[C@@H](Cc2cccc(C)c2)C(=O)N[C@@H]2C(=O)N3C[C@H](O)C[C@H]3C(=O)N3CCN(C)C[C@H]3C(=O)N[C@@H](C)C(=O)N3C[C@H](C)C[C@H]3C(=O)O[C@H]2C)cc1 [Compound 30, (S)—N-((6AS,8R,12S,13S,15AS,17R,21S,23AS)-8-HYDROXY-2,13,17,21-TETRAMETHYL-6,11,15,20,23-PENTAOXOOCTADECAHYDRO-2H,6H,11H,15H-PYRAZINO[2,1-I]DIPYRROLO[2,1-C:2′,1′-L][1]OXA[4,7,10,13]TETRAAZACYCLOHEXADECIN-12-YL)-3-(M-TOLYL)-2-(3-(P-TOLYL)UREIDO)PROPANAMIDE] ({NH(4-Me-phenyl)-CO}-[Phe(3-Me)][aThr][Hyp][Piperazine(2S-CO,4-Me)]A[Pro(4R-Me)]; ester 2-C)
E. faecails; [4]
  MIC: 0.313 µM (≈ 0.256 µg/mL)
S. aureus ATCC 29213; [5]
  MIC: 0.625 µM (≈ 0.511 µg/mL)
[1]; [6]
  Human – 94.8 ± 4.8%
Sa-ClpP
  IC50: 3.41 ± 0.41 µM

## Cc1cccc(C[C@H](NC(=O)Nc2ccc(Cl)cc2F)C(=O)N[C@H]2COC(=O)[C@@H]3C[C@@H](C)CN3C(=O)[C@H](C)NC(=O)[C@@H]3CCCCN3C(=O)[C@@H]3C[C@H](N)CN3C2=O)c1 [Compound 12, (S)—N-((2R,6S,8AS,14AS,16S,20S,23AS)-16-AMINO-2,6-DIMETHYL-5,8,14,19,23-PENTAOXOOCTADECAHYDRO-1H,5H,14H,19H-PYRIDO[2,1-I]DIPYRROLO[2,1-C:2′,1′-L][1]OXA[4,7,10,13]TETRAAZACYCLOHEXADECIN-20-YL)-2-(3-(4-CHLORO-2-FLUOROPHENYL)UREIDO)-3-(M-TOLYL)PROPANAMIDE]
E. faecails; [2]
  MIC: 1.25 µM (≈ 1.03 µg/mL)
S. aureus ATCC 29213; [3]
  MIC: 1.25 µM (≈ 1.03 µg/mL)
[1]; human, 4 h, pH 7.4
  Human – 99.9 ± 0.2%
Sa-ClpP
  IC50: 6.03 ± 0.3 µM

## Cc1cccc(C[C@H](NC(=O)Nc2ccc3c(c2)OCCO3)C(=O)N[C@@H]2C(=O)N3C[C@H](O)C[C@H]3C(=O)N3CCCC[C@H]3C(=O)N[C@@H](C)C(=O)N3C[C@H](C)C[C@H]3C(=O)O[C@H]2C)c1 [Compound 28, (S)-2-(3-(2,3-DIHYDROBENZO[B][1,4]DIOXIN-6-YL)UREIDO)-N-((2R,6S,8AS,14AS,16R,20S,21S,23AS)-16-HYDROXY-2,6,21-TRIMETHYL-5,8,14,19,23-PENTAOXOOCTADECAHYDRO-1H,5H,14H,19H-PYRIDO[2,1-I]DIPYRROLO[2,1-C:2′,1′-L][1]OXA[4,7,10,13]TETRAAZACYCLOHEXADECIN-20-YL)-3-(M-TOLYL)PROPANAMIDE] ({X3-CO}-[Phe(3-Me)][aThr][Hyp][Pip]A[Pro(4R-Me)]; ester 2-C)
E. faecails; [2]
  MIC: 0.625 µM (≈ 0.529 µg/mL)
S. aureus ATCC 29213; [3]
  MIC: 2.5 µM (≈ 2.11 µg/mL)
[1]; human, 4 h, pH 7.4
  Human – 92.9 ± 2.9%
Sa-ClpP
  IC50: 4.86 ± 0.17 µM

## Cc1cccc(C[C@H](NC(=O)Nc2ccc3c(c2)OCCO3)C(=O)N[C@@H]2C(=O)N3C[C@H](O)C[C@H]3C(=O)N3CCOC[C@H]3C(=O)N[C@@H](C)C(=O)N3C[C@H](C)C[C@H]3C(=O)O[C@H]2C)c1 [Compound 27, (S)-2-(3-(2,3-DIHYDROBENZO[B][1,4]DIOXIN-6-YL)UREIDO)-N-((6AS,8R,12S,13S,15AS,17R,21S,23AS)-8-HYDROXY-13,17,21-TRIMETHYL-6,11,15,20,23-PENTAOXOOCTADECAHYDRO-6H,11H,15H-[1,4]OXAZINO[3,4-I]DIPYRROLO[2,1-C:2′,1′-L][1]OXA[4,7,10,13]TETRAAZACYCLOHEXADECIN-12-YL)-3-(M-TOLYL)PROPANAMIDE] ({X3-CO}-[Phe(3-Me)][aThr][Hyp][Morpholine(3S-CO)]A[Pro(4R-Me)]; ester 2-C)
E. faecails; [2]
  MIC: 2.5 µM (≈ 2.12 µg/mL)
S. aureus ATCC 29213; [3]
  MIC: 10 µM (≈ 8.48 µg/mL)
[1]; human, 4 h, pH 7.4
  Human – 91.1 ± 1.1%
Sa-ClpP
  IC50: 5.13 ± 0.16 µM

## Cc1ccc(NC(=O)N[C@@H](Cc2cccc(C)c2)C(=O)N[C@H]2COC(=O)[C@@H]3C[C@H](C)CN3C(=O)[C@H](C)NC(=O)[C@@H]3CCCCN3C(=O)[C@@H]3CCCN3C2=O)cc1 (stereo in doubt) [Compound 43, (S)—N-((2S,6S,8AS,14AS,20S,23AS)-2,6-DIMETHYL-5,8,14,19,23-PENTAOXOOCTADECAHYDRO-1H,5H,14H,19H-PYRIDO[2,1-I]DIPYRROLO[2,1-C:2′,1′-L][1]OXA[4,7,10,13]TETRAAZACYCLOHEXADECIN-20-YL)-3-(M-TOLYL)-2-(3-(P-TOLYL)UREIDO)PROPANAMIDE]
E. faecails; [4]
  MIC: 2.5 µM (≈ 1.93 µg/mL)
S. aureus ATCC 29213; [5]
  MIC: 2.5 µM (≈ 1.93 µg/mL)
[1]; [6]
  Human – 72.9 ± 1.4%

## Cc1cccc(C[C@H](NC(=O)Nc2ccc(Cl)cc2F)C(=O)N[C@@H]2C(=O)N3CCC[C@H]3C(=O)N3CCS(=O)(=O)C[C@H]3C(=O)N[C@@H](C)C(=O)N3C[C@H](C)C[C@H]3C(=O)O[C@H]2C)c1 [Compound 40, (S)-2-(3-(4-CHLORO-2-FLUOROPHENYL)UREIDO)-3-(M-TOLYL)-N-((6AS,12S,13S,15AS,17R,21S,23AR)-13,17,21-TRIMETHYL-2,2-DIOXIDO-6,11,15,20,23-PENTAOXOOCTADECAHYDRO-6H,11H,15H-DIPYRROLO[2,1-C:2′,1′-L][1,4]THIAZINO[3,4-I][1]OXA[4,7,10,13]TETRAAZACYCLOHEXADECIN-12-YL)PROPANAMIDE] ({NH(4-Cl-2-F-phenyl)-CO}-[Phe(3-Me)][aThr]P[X6]A[Pro(4R-Me)]; ester 2-C)
E. faecails; [2]
  MIC: 0.625 µM (≈ 0.546 µg/mL)
S. aureus ATCC 29213; [3]
  MIC: 1.25 µM (≈ 1.09 µg/mL)
[1]; human, 4 h, pH 7.4
  Human – 98.5 ± 8.5%
